# B1: OVA: OVA protein (EndoFit Ovalbumin: from InvivoGen), model antigen (protein, UniProt P01012 2-386, looked up)
# Ovalbumin: GSIGAASMEFCFDVFKELKVHHANENIFYCPIAIMSALAMVYLGAKDSTRTQINKVVRFDKLPGFGDSIEAQCGTSVNVHSSLRDILNQITKPNDVYSFSLASRLYAEERYPILPEYLQCVKELYRGGLEPINFQTAADQARELINSWVESQTNGIIRNVLQPSSVDSQTAMVLVNAIVFKGLWEKAFKDEDTQAMPFRVTEQESKPVQMMYQIGLFRVASMASEKMKILELPFASGTMSMLVLLPDEVSGLEQLESIINFEKLTEWTSSNVMEERKIKVYLPRMKMEEKYNLTSVLMAMGITDVFSSSANLSGISSAESLKISQAVHAAHAEINEAGREVVGSAEAGVDAASVSEEFRADHPFLFCIKHIATNAVLFFGRCVSP
# Key:
# [1] = Release test: measurement of leakage
# Protocol: The term “Membrane disruptive function” denotes the function to bring about release in the release test. The release test described in this specification is a test comprising or consisting of adding liposomes (dispersion) encapsulating an aqueous solution containing a quenching substance and a fluorescent substance and a dispersion of a sample for evaluation to a properly pH-adjusted aqueous solution, incubating the resulting aqueous solution at 37° C. for 90 minutes or 30 minutes, and measuring the fluorescence intensity of the incubated aqueous solution. This method permits the measurement of the amount of the fluorescent substance which has been released from the liposomes. […] The release test will be described in more detail in the Examples.
# The evaluation was performed with the help of EYPC liposomes which contain Pyranine (as a fluorescent substance) and DPX (as a quencher).
# EYPC (3000 nmol) dissolved in chloroform was measured and placed in a 10-mL eggplant-shaped flask, and the EYPC was made into thin film with a rotary evaporator. To the flask was added a Pyranine solution (500 μL), which is composed of Pyranine (35 mM), DPX (50 mM), and MES (25 mM), and has pH 7.4. The thin film in the flask was dispersed with the help of an ultrasonic irradiator (USC-J). The resulting dispersion was passed through a porous polycarbonate film having a pore diameter of 100 nm with the help of an extruder, so as to make the particle size uniform. The resulting dispersion underwent substitution of the outer aqueous layer with the help of MES Buffer and G100 column. Thus, there was obtained a dispersion of EYPC liposomes encapsulating the fluorescent substance. The concentration of the lipid was determined with the help of phospholipid C-test Wako, and then it was adjusted with MES Buffer so that phospholipid became 1.0 mmol/L.
# The dispersion of EYPC liposomes (with its concentration adjusted) in an amount of 20 μL and the dispersion of a sample for evaluation in an amount of 20 μL were added to MES Buffer (with its pH adjusted) in an amount of 2960 μL. The resulting mixture underwent incubation at 37° C. for 90 or 30 minutes. Values resulting from incubation for 90 minutes are adopted in the Examples, unless otherwise indicated.
# The leakage was calculated assuming that the sheer dispersion of EYPC liposomes has 0% and the dispersion of EYPC liposomes incorporated with 30 μL of 10-fold diluted Triton-X100 has 100%. Specifically, the leakage was calculated from the following formula, L denotes the intensity of fluorescence measured, L0 denotes the intensity of fluorescence of the sheer dispersion of EYPC liposomes containing the fluorescent substance, and L100 denotes the intensity of fluorescence of the dispersion of EYPC liposomes incorporated with Triton-X100.
# CD80 = assay: Evaluation of stimulus to activate innate immune system: expression of CD80 in cultured mice spleen cells (flow cytometry); conditions: for CD80 MFI, Amphipathic substance: amphipathic substance alone; for fluorescence intensity of CD80PE compared with PBS: solution (5 μL) of sample added alone: peptide, OVA 800 μg/mL, DLPC 1000 nmol/mL, deoxycholic acid 1600 nmol/mL, FIG. 8(B)
# Protocol: The evaluation of stimulus to activate innate immune system was performed as follows.
# A spleen was harvested from C57BL/6N mice. The harvested spleen was injected with 500 μL of collagenase solution, 2 mg/mL (prepared with RPMI medium) followed by incubation at 37° C. for 30 minutes. The spleen was made into cell suspension by treatment with BD Falcon cell strainer. The cells underwent hemolysis with RBC lysis buffer, followed by washing with RPMI medium. The cells were dispersed into RPMI medium, and the number of cells was counted. The cells were used for the subsequent procedure.
# The cells were inoculated into a 96-well dish such that 1.0×10^6 cells/100 μL. The cell dispersion was given 100 μL of RPMI medium containing a dispersion of different kind, followed by incubation overnight. These procedures were performed by using serum-free RPMI medium.
# The cells were recovered and washed with BD stain buffer. Then, the cells underwent incubation together with Anti-CD11cFITC, 0.25 μg/100 μL (4° C. for 30 minutes), so that the cells were stained. After washing, the cells underwent again incubation with Anti-CD80PE, Anti-CD86PE, or Anti-CD40PE, 0.25 μg/100 μL (4° C. for 30 minutes), so that the cells were stained. After washing at least more than three times, the cells were evaluated by using the flow cytometer (Cytomics FC500, Software: CXP software ver. 2).
# [2] = system: CTL (IFNγ-secreting cells/total CD8 positive cells); assay: Evaluation of CTL induction rate, ICS method, after immunization of mice; assay type: in vivo, C57BL/6N mice; design: key to CTL induction rate, Low MPL / CTL induction rate, High MPL: ratio of IFNγ-secreting cells to total CD8 positive cells; conditions: for CTL induction rate, High MPL: high MPL (22.7); for CTL induction rate, High MPL / CTL induction rate, Low MPL: n=3; for CTL induction rate, Low MPL: low MPL (0.0227)
# Protocol: Administration (100 μL/head) was performed by subcutaneous injection at one position on the back under anesthesia. […] For evaluation of cell-mediated immunity, administration was performed once and the assay was performed seven days after administration. For evaluation of humoral immunity, administration was performed twice. The second administration was performed 14 days after the first administration, and assay was performed seven days after the second administration.
# The mice were sacrificed on the seventh day after the last administration and had its spleen harvested. The spleen was given RPMI medium (3.0 mL) containing 10% serum and then treated by the BD Falcon cell strainer. Thus there was obtained a suspension of cells. […] The cells were dispersed into RPMI medium containing 10% serum. The number of cells was counted. Thus there was obtained a dispersion of spleen cells.
# For restimulation of the antigen, 10% serum-containing RPMI medium (100 μL) containing OVA peptide (40 μg/mL) was added, followed by incubation for three hours. Then, BD GolgiPlug was added such that its concentration was 0.2 μL/100 μL. Cell culture was performed overnight. In the case where the restimulation was not given, a 10% serum-containing RPMI medium not containing OVA peptide was used.
# After washing, the cells were stained with Anti-CD8aPE (at 4° C. for 30 minutes), followed by washing again. Then the cells were permeabilized with Cytofix/Cytoperm. After washing, the cells were stained with Anti-IFNγFITC (at 4° C. for 30 minutes). […] CTL induction rate was calculated in terms of the ratio between the IFNγ secreting cells and the total CD8 positive cells.
# It is known that MPL activates innate immune system and functions as an adjuvant even when used alone. It is also known that MPL induces cell-mediated immunity. Thus, a comparison was made as to the induction of cell-mediated immunity between MPL used alone and MPL used in combination with a pH-sensitive carrier in the form of the adjuvant composition. Each of the MPL and the adjuvant composition is administered together with an antigen. […] The above-mentioned solution or dispersion was subcutaneously administered once to the back of C57BL/6N mice, and the CTL induction rate was obtained according to the ICS method. The CTL induction rate is expressed in terms of the ratio of the IFNγ-secreting cells to the total CD8 positive cells in a specific area which is hardly affected by dead cells (IFNγ-secreting cells/total CD8 positive cells).
# [3] = Table 2, pH-sensitive substance alone
# [4] = antigen peptide 3.2 μg, DLPC, deoxycholic acid (160 nmol), subcutaneous once
# [5] = antigen peptide 16 μg, DLPC, deoxycholic acid (160 nmol), subcutaneous once
# [6] = antigen peptide 80 μg, DLPC, deoxycholic acid (160 nmol), subcutaneous once
# [7] = antigen peptide 400 μg, DLPC, deoxycholic acid (160 nmol), subcutaneous once
Molecule,"leakage, Alone, pH 5.0 ([1]; Table 1, substance alone) [%]","leakage, Alone, pH 7.4 ([1]; Table 1, substance alone) [%]","CD80 MFI, Amphipathic substance (CD80) [%]","leakage, Alone, pH 5.0 [1, 3] [%]","leakage, Alone, pH 7.4 [1, 3] [%]",other results
"Cc1c(C)c2c(c(C)c1O)CCC(C)(CCCC(C)CCCC(C)CCCC(C)C)O2 (racemic) [α-tocopherol, DL-α-tocopherol]",10.6 ± 1.3,5.5 ± 0.3,43.8 ± 4.9,,,
C[C@H](CCC(=O)O)[C@H]1CC[C@H]2[C@@H]3[C@H](O)C[C@@H]4C[C@H](O)CC[C@]4(C)[C@H]3CC[C@]12C [Chenodeoxycholic acid],,,,14.1 ± 0.9,0.7 ± 0.5,
"CCCCCCCCCC(=O)OC[C@H](COP(=O)([O-])OCC[N+](C)(C)C)OC(=O)CCCCCCCCC [DDPC, 1,2-didecanoyl-sn-glycero-3-phosphatidylcholine]",37.1 ± 1.3,17.4 ± 0.1,36.5 ± 1.1,,,
"CCCCCCCCCCCC(=O)OC[C@H](COP(=O)([O-])OCC[N+](C)(C)C)OC(=O)CCCCCCCCCCC [DLPC, 1,2-dilauroyl-sn-glycero-3-phosphatidylcholine]",5.5 ± 0.9,1.8 ± 1.2,38.5 ± 2.9,,,fluorescence intensity of CD80PE compared with PBS (CD80): remained unchanged from that in the case where PBS was added
CC(CCC(=O)NCC(=O)O)C1CCC2C3CCC4CC(O)CCC4(C)C3CC(O)C12C (stereo not shown) [Glycodeoxycholic acid],,,,9.8 ± 0.8,1.9 ± 1.2,
CC1(C)[C@@H](O[C@H]2O[C@H](C(=O)O)[C@@H](O)[C@H](O)[C@H]2O[C@@H]2O[C@H](C(=O)O)[C@@H](O)[C@H](O)[C@H]2O)CC[C@]2(C)[C@H]3C(=O)C=C4[C@@H]5C[C@@](C)(C(=O)O)CC[C@]5(C)CC[C@@]4(C)[C@]3(C)CC[C@@H]12 [Glycyrrhizinic acid],,,,16.7 ± 2.9,4.2 ± 1.2,
C[C@H](CCC(=O)O)[C@H]1CC[C@H]2[C@@H]3C[C@H](O)[C@@H]4C[C@H](O)CC[C@]4(C)[C@H]3CC[C@]12C [Hyodeoxycholic acid],,,,12.6 ± 0.4,4.2 ± 0.9,
"CCCCCCCCCCCC(=O)OCCOCCOCCOCCOCCOCCOCCOCCOCCOCCOCCOCCOCCOCCOCCOCCOCCOCCOCCOCCOCC(OCCOCCOCCOCCOCCOCCOCCOCCOCCOCCOCCOCCOCCOCCOCCOCCOCCOCCOCCOCCO)C1OCC(OCCOCCOCCOCCOCCOCCOCCOCCOCCOCCOCCOCCOCCOCCOCCOCCOCCOCCOCCOCCO)C1OCCOCCOCCOCCOCCOCCOCCOCCOCCOCCOCCOCCOCCOCCOCCOCCOCCOCCOCCOCCO (stereo not shown) [Tween 20, polyoxyethylene sorbitan monolaurate ester]",74.0 ± 2.0,70.4 ± 3.9,38.0 ± 3.2,,,
Monophosphoryl lipid A [MPL alone],,,,,,"leakage at a low pH value compared with PBS alone ([1]; MPL (dispersed in PBS or DMSO) in an amount equivalent to MPL content 0.227, FIG. 9(A)): equivalent to that in the case where PBS was used alone; CTL induction rate (%), Adjuvant composition (with antigen not restimulated) ([2]; DLPC with pH-sensitive compound 160 nmol, MPL content 0.227, OVA (80 μg), dispersion, n=1, antigen not restimulated): 0.14%; CTL induction rate (%), Adjuvant composition ([2]; DLPC with pH-sensitive compound 160 nmol, MPL content 0.227, OVA (80 μg), dispersion, n=1, antigen restimulated): 0.25%; CTL induction rate by adjuvant composition (%), Antigen: OVA ([2]; antigen OVA (80 μg), DLPC, MPL content 0.227, deoxycholic acid amount (nmol) varied, dispersion, n=1): 0.18%; CTL induction rate by adjuvant composition (%), Antigen: peptide ([2]; antigen peptide (80 μg), DLPC, MPL content 0.227, deoxycholic acid amount (nmol) varied, dispersion, n=1): 0.22%; CTL induction rate ([2]; antigen peptide (80 μg), MPL content 0.227 or equivalent, DLPC, deoxycholic acid (160 nmol), subcutaneous once, FIGS. 3 and 4): 0.27%; CTL induction rate, High MPL [2, 4]: 0.45; CTL induction rate, High MPL [2, 5]: 0.36; CTL induction rate, High MPL [2, 6]: 0.37; CTL induction rate, High MPL [2, 7]: 0.58; CTL induction rate, Low MPL [2, 4]: 0.14; CTL induction rate, Low MPL [2, 5]: 0.31; CTL induction rate, Low MPL [2, 6]: 0.26; CTL induction rate, Low MPL [2, 7]: 0.46; CTL induction rate (%), Amphipathic substance-MPL ([2]; mixed thin film of amphipathic substance (100 nmol) and MPL (0.227) dispersed in antigen solution, OVA (80 μg), n=1): 0.20%"
sorbitan oleic acid ester [Span 80],18.1 ± 1.0,6.1 ± 0.6,39.6 ± 1.8,,,
B1,,,,,,fluorescence intensity of CD80PE compared with PBS (CD80): remained unchanged from that in the case where PBS was added
